Laboratory results published in ChEMBL document CHEMBL6092168, “Identification of novel indolinone derivatives as CTSC inhibitors to treat inflammatory bowel disease by modulating inflammatory factors” (Eur J Med Chem, 2024).
Activity calls are given as the source filed them. The calls are words filed in the database; no cut-off is given here.

Assays:
[1] = target: T1, Myeloblastin (Homo sapiens) (UniProt P24158); assay: Inhibition of proteinase 3 in human U-937 cells using aminobenzoyl-Val-Ala-Asp-Cys-Ala-Asp-Gln-ethylenediamine 2,4-dinitrophenyl as substrate at 10 uM incubated for 5 days by fluorescence based microplate reader analysis relative to control; format: cell-based; conditions: time 5.0 day
T1 sequence (whole entry): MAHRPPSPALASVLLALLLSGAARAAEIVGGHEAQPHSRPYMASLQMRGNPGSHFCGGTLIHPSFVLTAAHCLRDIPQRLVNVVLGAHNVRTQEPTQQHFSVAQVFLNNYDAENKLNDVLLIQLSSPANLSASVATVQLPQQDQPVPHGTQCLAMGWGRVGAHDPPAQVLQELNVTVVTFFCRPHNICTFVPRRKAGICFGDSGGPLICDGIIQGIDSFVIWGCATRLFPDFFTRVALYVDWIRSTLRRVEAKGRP

[2] = target: T2, Neutrophil elastase (Mus musculus) (UniProt Q3UP87); assay: Induction of neutrophil elastase degradation in C57BL/6 mouse bone marrow cells assessed as remaining activity at 10 uM incubated for 12 hrs by Western blot analysis relative to control; format: cell-based; conditions: Bone marrow cell
T2 sequence (whole entry): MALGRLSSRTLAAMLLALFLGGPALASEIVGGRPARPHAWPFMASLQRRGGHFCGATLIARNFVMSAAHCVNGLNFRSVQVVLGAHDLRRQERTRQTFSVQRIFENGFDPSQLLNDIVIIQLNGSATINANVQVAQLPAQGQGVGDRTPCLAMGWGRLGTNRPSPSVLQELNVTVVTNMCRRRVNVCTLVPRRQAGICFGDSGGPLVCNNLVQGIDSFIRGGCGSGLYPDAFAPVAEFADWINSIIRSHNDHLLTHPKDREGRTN

[3] = MRT in male Sprague-Dawley rat at 2 mg/kg, iv measured at 5 to 1440 mins by LC-MS/MS analysis; format: ADME, organism-based; conditions: in vivo, time 5-1440 min
[4] = MRT in male Sprague-Dawley rat at 10 mg/kg, po measured at 5 to 1440 mins by LC-MS/MS analysis; format: ADME, organism-based; conditions: in vivo, time 5-1440 min
[5] = AUC (0 to infinity) in male Sprague-Dawley rat at 2 mg/kg, iv measured at 5 to 1440 mins by LC-MS/MS analysis; format: ADME, organism-based; conditions: in vivo, time 5-1440 min
[6] = target: T3, Dipeptidyl peptidase 1 (Mus musculus) (UniProt P97821); assay: In vivo inhibition of Cathepsin C in C57BL/6 mouse assessed as reduction in cathepsin C activity in blood administered orally once daily for 6 days by fluorescence based microplate reader; format: functional, organism-based; conditions: dose 5-30 mg/kg, route po, time 6.0 day
T3 sequence (whole entry): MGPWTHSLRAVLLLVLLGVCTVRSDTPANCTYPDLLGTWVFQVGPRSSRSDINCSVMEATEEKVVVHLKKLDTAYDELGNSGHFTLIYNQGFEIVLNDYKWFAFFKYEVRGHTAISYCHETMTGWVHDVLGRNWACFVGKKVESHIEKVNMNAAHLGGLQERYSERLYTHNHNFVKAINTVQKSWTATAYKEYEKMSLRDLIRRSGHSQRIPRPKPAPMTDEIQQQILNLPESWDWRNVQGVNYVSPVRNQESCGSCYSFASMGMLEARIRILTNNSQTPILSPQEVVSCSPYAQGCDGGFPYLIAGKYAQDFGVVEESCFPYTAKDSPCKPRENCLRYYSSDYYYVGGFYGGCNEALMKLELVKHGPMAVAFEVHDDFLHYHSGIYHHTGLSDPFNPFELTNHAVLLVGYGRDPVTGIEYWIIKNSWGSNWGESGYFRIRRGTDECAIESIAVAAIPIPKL

[7] = target: T2, Neutrophil elastase (Mus musculus); assay: In vivo inhibition of neutrophil elastase in C57BL/6 mouse assessed as reduction in neutrophil elastase activity in blood at 30 mg/kg, po administered once daily for 6 days by fluorescence based microplate reader relative to control; format: functional, organism-based; conditions: time 6.0 day
[8] = target: T4, Myeloblastin (Mus musculus) (UniProt Q61096); assay: In vivo inhibition of proteinase 3 in C57BL/6 mouse assessed as reduction in proteinase 3 activity in bone marrow at 30 mg/kg, po administered once daily for 6 days by fluorescence based microplate reader relative to control; format: functional, organism-based; conditions: time 6.0 day
T4 sequence (whole entry): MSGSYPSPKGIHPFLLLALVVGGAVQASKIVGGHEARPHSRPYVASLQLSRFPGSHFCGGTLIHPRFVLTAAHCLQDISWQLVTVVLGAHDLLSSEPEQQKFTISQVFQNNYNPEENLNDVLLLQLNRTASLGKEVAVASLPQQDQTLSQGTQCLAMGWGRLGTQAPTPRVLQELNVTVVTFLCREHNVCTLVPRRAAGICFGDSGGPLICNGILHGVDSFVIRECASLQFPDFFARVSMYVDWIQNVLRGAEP

[9] = system: RAW264.7; assay: Anti-inflammatory activity in LPS-stimulated mouse RAW264.7 cells assessed as reduction in TNF-alpha production incubated for 24 hrs by ELISA; format: functional, cell-based; conditions: dose 0.62-5 µM
[10] = system: RAW264.7; assay: Anti-inflammatory activity in LPS-stimulated mouse RAW264.7 cells assessed as reduction in IL-6 production incubated for 24 hrs by ELISA; format: functional, cell-based; conditions: dose 0.62-5 µM
[11] = system: Mus musculus; assay: Anti-inflammatory activity in DSS-induced ulcerative colitis male C57BL/6 mouse model assessed as reduction in inflammatory epithelial destruction in colon at 60 mg/kg administered via gavage for 10 days by H and E staining based analysis; format: functional, organism-based; conditions: time 10.0 day
[12] = system: Mus musculus; assay: Anti-inflammatory activity in DSS-induced ulcerative colitis male C57BL/6 mouse model assessed as reduction in IL- 6 expression in serum administered via gavage for 10 days by ELISA; format: functional, organism-based; conditions: dose 15-60 mg/kg, time 10.0 day
[13] = system: Mus musculus; assay: Anti-inflammatory activity in DSS-induced ulcerative colitis male C57BL/6 mouse model assessed as reduction in GM-CSF expression in serum administered via gavage for 10 days by ELISA; format: functional, organism-based; conditions: dose 15-60 mg/kg, time 10.0 day
[14] = system: Mus musculus; assay: Anti-inflammatory activity in DSS-induced ulcerative colitis male C57BL/6 mouse model assessed as reduction in Cathepsin G level in serum at 60 mg/kg administered via gavage for 10 days relative to control; format: functional; parameters: scale not given: the % may be the effect or the level left; conditions: time 10 day
[15] = system: Mus musculus; assay: Anti-inflammatory activity in DSS-induced ulcerative colitis male C57BL/6 mouse model assessed as reduction in Cathepsin C level in colon at 15 to 30 mg/kg administered via gavage for 10 days; format: functional, organism-based; conditions: dose 15-30 mg/kg, time 10.0 day
[16] = target: T2, Neutrophil elastase (Mus musculus); assay: Induction of neutrophil elastase degradation in C57BL/6 mouse bone marrow cells at 10 uM incubated for 24 hrs by Western blot analysis; format: cell-based; conditions: Bone marrow cell
[17] = target: T2, Neutrophil elastase (Mus musculus); assay: In vivo inhibition of neutrophil elastase in C57BL/6 mouse assessed as reduction in neutrophil elastase activity in bone marrow administered orally once daily for 6 days by fluorescence based microplate reader; format: functional, organism-based; conditions: dose 5-30 mg/kg, route po, time 6.0 day
[18] = system: Mus musculus; assay: Anti-inflammatory activity in DSS-induced ulcerative colitis male C57BL/6 mouse model assessed as decrease in body weight loss at 15 mg/kg administered via gavage for 10 days; format: functional, organism-based; conditions: time 10.0 day
[19] = system: Mus musculus; assay: Anti-inflammatory activity in DSS-induced ulcerative colitis male C57BL/6 mouse model assessed as increase in colon length administered via gavage for 10 days; format: functional, organism-based; conditions: dose 15-60 mg/kg, time 10.0 day
[20] = system: Mus musculus; assay: Anti-inflammatory activity in DSS-induced ulcerative colitis male C57BL/6 mouse model assessed as reduction in neutrophil elastase level in serum at 15 to 30 mg/kg administered via gavage for 10 days; format: functional, organism-based; conditions: dose 15-30 mg/kg, time 10.0 day

O=C1Nc2c(cccc2-c2ccc(NC3CCOCC3)cc2)/C1=C/c1ccnc2ccccc12
inhibition [1]: 33.1% | Activity [2]: 75% | MRT [3]: 10.48 h | MRT [4]: 2.98 h | AUC [5]: 915.64 ng·h/mL | inhibition [6]: Dose-dependent-effect | inhibition [7]: 42.9% | inhibition [8]: 58.6% | Activity [9]: Dose-dependent-effect | Activity [10]: Dose-dependent-effect | Activity [11]: Active | Activity [12]: Dose-dependent-effect; Significant Reduction Observed In High Dose Group | Activity [13]: Dose-dependent-effect; Significant Reduction Observed In High Dose Group | Activity [14]: 40% | Activity [15]: inactive | Activity [16]: Active | inhibition [17]: Dose-dependent-effect | Activity [18]: Active; Weight Loss Was Lower Than In Mesalazine Group | Activity [19]: Dose-dependent-effect | Activity [20]: inactive
